Reference: publication PMC11025887, “The SARM1 TIR domain produces glycocyclic ADPR molecules as minor products” (PLOS ONE, 2024)

Molecular target: T1, Drosophila SARM1 TIR domain (Drosophila melanogaster, UniProt Q6IDD9)
T1 construct: gene Sarm; TIR domain only; N-terminal 6xHis tag kept; codon optimized; E. coli BL21(DE3)
T1 sequence (Q6IDD9 837-981 limits assumed): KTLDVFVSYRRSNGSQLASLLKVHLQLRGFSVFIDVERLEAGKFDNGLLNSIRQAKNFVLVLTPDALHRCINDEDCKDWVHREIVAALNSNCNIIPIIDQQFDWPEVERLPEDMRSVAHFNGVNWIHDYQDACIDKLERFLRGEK
Test: LC-MS/MS of NAD+ and products
Type: biochemical
Conditions: […] protein; […] NAD+; […] HEPES-KOH pH […]; […] NaCl; […] TCEP; […] C; […] h; main product cADPR

NC(=O)c1ccc[n+]([C@@H]2O[C@H](COP(=O)(O)OP(=O)(O)OC[C@H]3O[C@@H](n4cnc5c(N)ncnc54)[C@H](O)[C@@H]3O)[C@@H](O)[C@H]2O)c1 [NAD^+]
LC-MS/MS of NAD+ and products: SARM1 TIR domains consumed NAD^+ efficiently
